We go through eleven molecules from patent US20260210939A1, “MODIFIED OLFACTORY RECEPTORS” (GIVAUDAN SA, priority 2022, published 2026).

Like-named read-outs stand apart in the source and are kept apart here.

For data set [1], the target named is human class II OR identified in the library screening (Homo sapiens, UniProt P34982).
Target sequence in this assay (P34982 whole entry): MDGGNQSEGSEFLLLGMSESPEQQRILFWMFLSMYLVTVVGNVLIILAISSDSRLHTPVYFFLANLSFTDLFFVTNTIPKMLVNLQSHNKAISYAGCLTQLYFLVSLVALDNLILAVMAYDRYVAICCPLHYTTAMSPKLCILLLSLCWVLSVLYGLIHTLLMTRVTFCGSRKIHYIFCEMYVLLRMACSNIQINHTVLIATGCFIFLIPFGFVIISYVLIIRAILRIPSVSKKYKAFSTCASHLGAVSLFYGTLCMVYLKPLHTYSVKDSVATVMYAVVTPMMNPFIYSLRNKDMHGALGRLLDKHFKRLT
Description: (§1) Selected ligand—OR pairs were then tested in a confirmatory test with a dose response analysis.
(§2) For selected receptors, the wild-type sequence was synthesized and cloned into pcDNA3.1 (+). Dose-response analysis with the cognate ligand was then performed for both the wild-type and the modified sequence.
In data set [2] the test system is human class II OR identified in the library screening.
Description: as §1, §2
The test system is the same in data set [3]. The experiment in a line: Confirmatory dose-response analysis of library-hit OR with cognate ligand, wild-type vs C-terminal domain SEQ ID NO: 221 (Table 17).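 As to all read-outs here: Wild-type receptor sequences expressed from the pcDNA3.1(+) vector and compared with the C-terminally modified receptors in dose-response tests using each receptor's cognate ligand.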 The note with it: for Fold improvement efficacy: maximal induction; for Detection threshold; Fold improvement efficacy: under detection threshold; for EC50: read-out: Potency, EC50 changed C-term.
Description: as §1, §2
The target of data set [4] is human class II OR identified in the library screening (Homo sapiens, UniProt P34982). The description is as above. The note with it: read-out: Potency, EC50 changed C-term; OR1D2, modified C-terminus SEQ ID NO: 221 (SEQ ID NO: 336).
Target sequence in this assay (P34982 1-291): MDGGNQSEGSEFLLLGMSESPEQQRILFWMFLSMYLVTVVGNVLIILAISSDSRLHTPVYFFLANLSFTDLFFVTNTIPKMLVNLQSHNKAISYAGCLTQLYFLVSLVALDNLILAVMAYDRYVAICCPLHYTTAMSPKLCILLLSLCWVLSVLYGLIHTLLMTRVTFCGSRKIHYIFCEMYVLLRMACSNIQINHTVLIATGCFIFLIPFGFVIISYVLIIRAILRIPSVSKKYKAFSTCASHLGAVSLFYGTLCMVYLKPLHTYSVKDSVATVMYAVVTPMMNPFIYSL
Description: as §1, §2
For data set [5], the target named is human class II OR identified in the library screening (Homo sapiens, UniProt Q8NGN4). Described as above. Particulars: OR10G9, wild-type sequence.
Description: as §1, §2
Data set [6] deals with human class II OR identified in the library screening (Homo sapiens, UniProt A4D2G3).
Description: as §1, §2
Data set [7] deals with human class II OR identified in the library screening (Homo sapiens, UniProt Q96R48).
Description: as §1, §2
Data set [8] addresses human class II OR identified in the library screening (Homo sapiens, UniProt A6NM03, Y28C).
Description: as §1, §2
Data set [9] addresses human class II OR identified in the library screening (Homo sapiens, UniProt A6NM03). In words: Confirmatory dose-response analysis of library-hit OR with cognate ligand, wild-type vs C-terminal domain SEQ ID NO: 221 (Table 17).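 Also: Wild-type receptor sequences expressed from the pcDNA3.1(+) vector and compared with the C-terminally modified receptors in dose-response tests using each receptor's cognate ligand.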 The note with it: read-out: Potency, EC50 changed C-term; OR2AG2 (Y28C), modified C-terminus SEQ ID NO: 221 (SEQ ID NO: 379).
Description: as §1, §2
The target in data set [10] is human class II OR identified in the library screening (Homo sapiens, UniProt Q8NGC4). The description is as above. The note with it: read-out: Potency, EC50 changed C-term; OR10G3 (S73G), modified C-terminus SEQ ID NO: 221 (SEQ ID NO: 673).
Description: as §1, §2
In data set [11] the target is human class II OR identified in the library screening (Homo sapiens, UniProt Q8NH80).
Target sequence in this assay (Q8NH80 whole entry, the tested form may be a part): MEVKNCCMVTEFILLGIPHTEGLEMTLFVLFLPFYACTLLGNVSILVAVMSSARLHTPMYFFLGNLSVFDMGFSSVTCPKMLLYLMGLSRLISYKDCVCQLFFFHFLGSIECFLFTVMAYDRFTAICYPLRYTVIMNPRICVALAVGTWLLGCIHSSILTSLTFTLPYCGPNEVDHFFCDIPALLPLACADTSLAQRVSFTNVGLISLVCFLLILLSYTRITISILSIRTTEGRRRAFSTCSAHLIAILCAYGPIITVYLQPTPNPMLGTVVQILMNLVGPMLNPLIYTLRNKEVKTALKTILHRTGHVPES
Description: as §1, §2
The target is the same in data set [12]. The experiment in a line: Confirmatory dose-response analysis of library-hit OR with cognate ligand, wild-type vs C-terminal domain SEQ ID NO: 221 (Table 17).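 Also: Wild-type receptor sequences expressed from the pcDNA3.1(+) vector and compared with the C-terminally modified receptors in dose-response tests using each receptor's cognate ligand.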 Particulars: read-out: Potency, EC50 changed C-term; OR10D3, modified C-terminus SEQ ID NO: 221 (SEQ ID NO: 671).
Target sequence in this assay (Q8NH80 1-290): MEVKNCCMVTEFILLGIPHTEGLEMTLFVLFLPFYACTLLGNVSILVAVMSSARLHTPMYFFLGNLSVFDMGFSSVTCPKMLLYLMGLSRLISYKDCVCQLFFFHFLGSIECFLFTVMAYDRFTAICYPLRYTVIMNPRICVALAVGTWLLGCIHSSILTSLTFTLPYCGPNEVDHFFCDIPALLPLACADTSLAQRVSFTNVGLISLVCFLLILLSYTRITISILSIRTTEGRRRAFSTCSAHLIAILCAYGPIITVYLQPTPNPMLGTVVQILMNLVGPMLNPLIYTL
Description: as §1, §2
Data set [13] addresses T1, human class II OR identified in the library screening (Homo sapiens, UniProt Q8NGP4).
T1 sequence (Q8NGP4 whole entry, the tested form may be a part): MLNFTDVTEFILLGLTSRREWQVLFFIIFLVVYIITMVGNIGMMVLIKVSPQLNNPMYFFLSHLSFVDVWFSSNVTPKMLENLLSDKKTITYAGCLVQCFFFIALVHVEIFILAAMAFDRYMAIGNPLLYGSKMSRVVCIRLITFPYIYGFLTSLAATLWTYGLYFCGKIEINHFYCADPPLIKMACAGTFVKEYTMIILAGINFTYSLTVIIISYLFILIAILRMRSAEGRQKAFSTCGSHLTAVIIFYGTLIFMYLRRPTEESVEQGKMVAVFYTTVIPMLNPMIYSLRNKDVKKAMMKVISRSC
Description: as §1, §2
For data set [14], the target named is human class II OR identified in the library screening (Homo sapiens, UniProt Q8NGP4). The experiment in a line: Confirmatory dose-response analysis of library-hit OR with cognate ligand, wild-type vs C-terminal domain SEQ ID NO: 221 (Table 17).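 Also: Wild-type receptor sequences expressed from the pcDNA3.1(+) vector and compared with the C-terminally modified receptors in dose-response tests using each receptor's cognate ligand.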 Particulars: read-out: Potency, EC50 changed C-term; OR5M3, modified C-terminus SEQ ID NO: 221 (SEQ ID NO: 559).
Target sequence in this assay (Q8NGP4 1-290): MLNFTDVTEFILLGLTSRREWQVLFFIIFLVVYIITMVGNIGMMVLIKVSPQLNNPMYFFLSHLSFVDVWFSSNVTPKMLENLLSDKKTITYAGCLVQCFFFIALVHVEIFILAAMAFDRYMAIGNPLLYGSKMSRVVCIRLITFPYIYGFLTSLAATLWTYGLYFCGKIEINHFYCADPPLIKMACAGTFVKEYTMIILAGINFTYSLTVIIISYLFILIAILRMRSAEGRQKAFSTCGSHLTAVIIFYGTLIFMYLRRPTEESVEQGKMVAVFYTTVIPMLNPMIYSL
Description: as §1, §2
Data set [15] concerns the target T1, human class II OR identified in the library screening. The description is as above.
Description: as §1, §2
Data set [16] addresses human class II OR identified in the library screening (Homo sapiens, UniProt Q8WZ84). Described as above. The note with it: OR8D1, wild-type sequence.
Description: as §1, §2
Data set [17] deals with human class II OR identified in the library screening (Homo sapiens, UniProt O76100).
Description: as §1, §2
For data set [18], the target named is human class II OR identified in the library screening (Homo sapiens, UniProt Q15622).
Description: as §1, §2
For data set [19], the target named is T2, OR2T4 (Homo sapiens, UniProt Q8NH00, D328E/G331D/M330K).
T2 sequence (Q8NH00 with tags, fused parts or gaps D328E/M330K/G331D): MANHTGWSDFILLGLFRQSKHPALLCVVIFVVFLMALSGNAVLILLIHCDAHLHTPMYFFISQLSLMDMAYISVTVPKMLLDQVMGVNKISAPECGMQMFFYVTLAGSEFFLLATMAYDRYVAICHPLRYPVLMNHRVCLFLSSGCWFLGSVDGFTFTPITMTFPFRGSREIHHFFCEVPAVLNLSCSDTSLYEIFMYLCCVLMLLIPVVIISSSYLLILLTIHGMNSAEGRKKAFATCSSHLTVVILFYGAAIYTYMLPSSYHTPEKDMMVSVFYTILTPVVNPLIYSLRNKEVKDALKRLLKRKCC

For data set [20], the target named is T2, OR2T4. In words: cell-based.
For data set [21], the target named is human class II OR identified in the library screening (Homo sapiens, UniProt O60403).
Description: as §1, §2
Setting [22] is: OR10G9, modified C-terminus SEQ ID NO: 221 (SEQ ID NO: 678).
Setting [23] is: OR10G9, modified C-terminus SEQ ID NO: 221 vs wild-type.
[24] abbreviates: OR5M3, modified C-terminus SEQ ID NO: 221 vs wild-type.
Where [25] appears, read: OR8D1, modified C-terminus SEQ ID NO: 221 (SEQ ID NO: 631).
[26] abbreviates: OR8D1, modified C-terminus SEQ ID NO: 221 vs wild-type.

human class II OR identified in the library screening (Homo sapiens, UniProt Q8NGN4), sequence (Q8NGN4 whole entry): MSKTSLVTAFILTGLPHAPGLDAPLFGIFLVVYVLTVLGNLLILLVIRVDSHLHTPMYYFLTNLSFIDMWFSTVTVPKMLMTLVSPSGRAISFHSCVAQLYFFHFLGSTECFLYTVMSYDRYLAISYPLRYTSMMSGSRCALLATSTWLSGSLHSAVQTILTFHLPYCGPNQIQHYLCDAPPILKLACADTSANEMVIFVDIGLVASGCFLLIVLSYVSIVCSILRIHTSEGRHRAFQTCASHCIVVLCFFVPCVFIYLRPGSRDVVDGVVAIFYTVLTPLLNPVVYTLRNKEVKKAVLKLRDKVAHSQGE
human class II OR identified in the library screening (Homo sapiens, UniProt A6NM03, Y28C), sequence (A6NM03 whole entry Y28C, the tested form may be a part): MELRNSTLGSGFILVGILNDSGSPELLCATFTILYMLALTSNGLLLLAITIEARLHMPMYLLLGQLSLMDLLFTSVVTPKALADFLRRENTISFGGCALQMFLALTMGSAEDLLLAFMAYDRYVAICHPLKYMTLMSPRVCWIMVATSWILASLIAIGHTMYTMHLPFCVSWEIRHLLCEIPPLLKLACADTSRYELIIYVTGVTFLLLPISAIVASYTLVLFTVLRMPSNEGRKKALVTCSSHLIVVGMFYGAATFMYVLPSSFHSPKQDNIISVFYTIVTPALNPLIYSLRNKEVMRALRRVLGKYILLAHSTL
human class II OR identified in the library screening (Homo sapiens, UniProt Q15622), sequence (Q15622 whole entry): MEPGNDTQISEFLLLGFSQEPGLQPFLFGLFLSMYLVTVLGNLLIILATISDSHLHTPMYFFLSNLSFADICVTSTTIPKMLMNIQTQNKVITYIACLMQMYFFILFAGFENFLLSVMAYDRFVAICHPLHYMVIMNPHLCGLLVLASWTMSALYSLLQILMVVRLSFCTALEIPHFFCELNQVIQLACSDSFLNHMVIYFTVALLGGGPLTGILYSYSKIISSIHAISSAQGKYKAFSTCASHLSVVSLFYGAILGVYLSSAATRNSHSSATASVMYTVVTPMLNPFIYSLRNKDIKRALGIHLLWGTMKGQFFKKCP
human class II OR identified in the library screening (Homo sapiens, UniProt Q96R48), sequence (Q96R48 whole entry): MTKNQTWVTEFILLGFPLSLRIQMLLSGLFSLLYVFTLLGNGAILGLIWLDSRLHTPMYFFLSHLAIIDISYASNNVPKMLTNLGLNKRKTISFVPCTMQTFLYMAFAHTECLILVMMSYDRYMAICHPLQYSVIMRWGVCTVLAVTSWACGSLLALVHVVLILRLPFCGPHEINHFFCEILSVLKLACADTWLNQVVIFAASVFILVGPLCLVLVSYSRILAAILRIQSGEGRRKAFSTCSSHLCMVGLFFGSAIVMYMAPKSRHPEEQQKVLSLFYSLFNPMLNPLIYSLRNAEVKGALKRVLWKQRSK
human class II OR identified in the library screening (Homo sapiens, UniProt Q8WZ84), sequence (Q8WZ84 whole entry): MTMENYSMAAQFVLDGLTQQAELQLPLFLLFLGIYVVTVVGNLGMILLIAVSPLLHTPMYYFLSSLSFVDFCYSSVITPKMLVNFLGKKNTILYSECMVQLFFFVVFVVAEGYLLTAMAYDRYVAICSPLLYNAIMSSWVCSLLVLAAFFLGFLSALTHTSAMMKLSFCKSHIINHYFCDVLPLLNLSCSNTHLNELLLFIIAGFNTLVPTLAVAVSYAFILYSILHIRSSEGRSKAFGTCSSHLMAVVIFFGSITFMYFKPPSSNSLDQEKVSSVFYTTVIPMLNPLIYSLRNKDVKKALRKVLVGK
human class II OR identified in the library screening (Homo sapiens, UniProt O76100), sequence (O76100 whole entry): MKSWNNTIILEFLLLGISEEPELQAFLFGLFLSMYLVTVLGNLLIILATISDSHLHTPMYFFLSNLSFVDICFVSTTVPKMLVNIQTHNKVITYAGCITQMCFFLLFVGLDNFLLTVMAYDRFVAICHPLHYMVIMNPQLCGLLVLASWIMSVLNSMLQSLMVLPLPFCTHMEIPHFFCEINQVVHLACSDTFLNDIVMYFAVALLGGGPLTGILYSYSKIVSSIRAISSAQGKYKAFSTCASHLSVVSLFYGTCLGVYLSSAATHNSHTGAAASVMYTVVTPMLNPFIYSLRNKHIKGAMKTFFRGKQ
human class II OR identified in the library screening (Homo sapiens, UniProt A6NM03), sequence (A6NM03 1-292): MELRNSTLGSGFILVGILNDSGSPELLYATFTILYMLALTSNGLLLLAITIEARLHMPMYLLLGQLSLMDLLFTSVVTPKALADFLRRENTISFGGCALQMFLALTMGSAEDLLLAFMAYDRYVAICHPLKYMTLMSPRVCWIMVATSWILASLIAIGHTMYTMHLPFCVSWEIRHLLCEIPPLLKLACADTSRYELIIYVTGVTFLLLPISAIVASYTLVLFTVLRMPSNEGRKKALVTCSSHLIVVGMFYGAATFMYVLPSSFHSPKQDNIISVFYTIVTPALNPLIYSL
human class II OR identified in the library screening (Homo sapiens, UniProt A4D2G3), sequence (A4D2G3 whole entry): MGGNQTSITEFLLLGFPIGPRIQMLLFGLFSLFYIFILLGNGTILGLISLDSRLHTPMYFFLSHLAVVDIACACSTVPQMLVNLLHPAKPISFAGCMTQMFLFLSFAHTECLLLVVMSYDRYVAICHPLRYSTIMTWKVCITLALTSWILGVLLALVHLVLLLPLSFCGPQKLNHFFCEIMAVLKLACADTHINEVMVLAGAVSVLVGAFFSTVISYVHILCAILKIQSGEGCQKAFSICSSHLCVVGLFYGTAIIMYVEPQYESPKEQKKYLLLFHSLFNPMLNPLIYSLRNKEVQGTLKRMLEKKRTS
human class II OR identified in the library screening (Homo sapiens, UniProt Q8NGC4), sequence (Q8NGC4 1-291): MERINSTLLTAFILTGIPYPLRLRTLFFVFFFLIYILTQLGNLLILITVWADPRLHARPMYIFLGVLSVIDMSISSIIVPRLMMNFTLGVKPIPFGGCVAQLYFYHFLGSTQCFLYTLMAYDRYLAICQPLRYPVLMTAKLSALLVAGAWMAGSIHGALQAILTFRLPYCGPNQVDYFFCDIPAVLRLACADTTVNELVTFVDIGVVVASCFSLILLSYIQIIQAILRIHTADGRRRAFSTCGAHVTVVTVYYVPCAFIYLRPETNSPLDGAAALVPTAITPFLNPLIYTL

As a reminder, the EC50 is the midpoint of the concentration-response curve. For `CC/C(C)=C/CC[C@H](C)CCO` [(E,S)-3,7-dimethylnon-6-en-1-ol], in data set [1], the “Detection threshold; concentration for 2-fold induction, wild-type” value is given as “no”. The “Detection threshold; concentration for 2-fold induction, changed C-term.” value in data set [2] was 3.0 µM. The same molecule had a Fold improvement efficacy in [3] (OR1D2, modified C-terminus SEQ ID NO: 221 vs wild-type) of 14.9 fold. Also, the EC50 in data set [4] is 34.6 µM.

On to `CCOc1cc(C)ccc1O` [Ultravanil], for which the “Detection threshold; concentration for 2-fold induction, wild-type” value in data set [5] turned out to be 14.6 µM. Also, the “Potency, Fold-improvement” value in [3] (OR10G9, EC50 modified C-terminus SEQ ID NO: 221 vs wild-type) came out at 4.8 fold. In data set [3] (setting [22]), the “Detection threshold; concentration for 2-fold induction, changed C-term.” value was 1.7 µM and the EC50 was determined as 19 µM. Further, in data set [3] (setting [23]), the Fold improvement efficacy turned out to be 3.4 fold and the “Detection threshold; Fold improvement efficacy” value was 8.62 fold.

Regarding `CC(C)=CCC(C)C1CC1(C)CO` (centres unmarked) [Rosyfolia], the “Detection threshold; concentration for 2-fold induction, wild-type” value in [6] and in data set [7] was “no” each time. Besides, the Fold improvement efficacy in data set [3] (OR2A5, modified C-terminus SEQ ID NO: 221 vs wild-type) was 3.0 fold; in [3] (OR2A25, modified C-terminus SEQ ID NO: 221 vs wild-type) it was 7.6 fold. Further, the EC50 in data set [3] (OR2A5, modified C-terminus SEQ ID NO: 221 (SEQ ID NO: 374)) amounted to 18 µM; in data set [3] (OR2A25, modified C-terminus SEQ ID NO: 221 (SEQ ID NO: 370)), 11 µM.

In the case of `O=C(OCc1ccccc1)c1ccccc1O` [Benzyl salicylate], the “Detection threshold; concentration for 2-fold induction, changed C-term.” value in [2] was found to be 1.3 µM. For the same molecule, in data set [8], the “Detection threshold; concentration for 2-fold induction, wild-type” value is “no”. Besides, the concentration for a half-maximal effect (EC50) in data set [9] worked out at 4.5 µM. The molecule also showed a Fold improvement efficacy in data set [3] (OR2AG2 (Y28C), modified C-terminus SEQ ID NO: 221 vs wild-type) of 10.2 fold.

With `COc1cc(C=O)ccc1O` [Vanillin], in data set [10], the half-maximal effective concentration (EC50) is 15.3 µM.

For `CC=Cc1ccc(O)c(OC)c1` [Isoeugenol], in data set [11], the “Detection threshold; concentration for 2-fold induction, wild-type” value is reported as “no”. For the same molecule, the “Detection threshold; concentration for 2-fold induction, changed C-term.” value in data set [2] came out at 1.4 µM. Further, the EC50 in data set [12] was found to be 8.4 µM. In [3] (OR10D3, modified C-terminus SEQ ID NO: 221 vs wild-type), this molecule displayed a Fold improvement efficacy of 6.1 fold.

Turning to `CC1=C(O)C(=O)C(C)O1` (centres unmarked) [Furaneol], the “Detection threshold; concentration for 2-fold induction, wild-type” value in data set [13] worked out at 30.5 µM. In addition, the “Detection threshold; concentration for 2-fold induction, changed C-term.” value in [2] came to 0.3 µM. The EC50 in data set [14] is 8.7 µM. This molecule came in with an EC50 in data set [15] of 65.3 µM. Moreover, the “Potency, Fold-improvement” value in [3] (OR5M3, EC50 modified C-terminus SEQ ID NO: 221 vs wild-type) was 7.5 fold. In data set [3] (setting [24]), the Fold improvement efficacy is reported as 16.8 fold and the “Detection threshold; Fold improvement efficacy” value is on record as 100.7 fold.

As to `CC1=C(O)C(=O)OC1C` (centres unmarked) [Sotolone], the “Detection threshold; concentration for 2-fold induction, wild-type” value in data set [16] was 2.5 µM. Also, the “Potency, Fold-improvement” value in data set [3] (OR8D1, EC50 modified C-terminus SEQ ID NO: 221 vs wild-type) is recorded as 2.5 fold. In addition, in data set [3] (setting [25]), the “Detection threshold; concentration for 2-fold induction, changed C-term.” value was found to be 0.48 µM and the EC50 worked out at 7.5 µM. Besides, in [3] (setting [26]), the Fold improvement efficacy was determined as 2.1 fold and the “Detection threshold; Fold improvement efficacy” value was found to be 5.2 fold.

In the case of `C=C(C)[C@@H]1CC[C@H](C)C2=C(C1)[C@@H](C)CC2=O` [Rotundone], the “Detection threshold; concentration for 2-fold induction, wild-type” value in data set [17] and in data set [18] was “no” in each case. Also, the Fold improvement efficacy in [3] (OR7A5, modified C-terminus SEQ ID NO: 221 vs wild-type) is given as 24. fold; in data set [3] (OR7A10, modified C-terminus SEQ ID NO: 221 vs wild-type), 5.9 fold. In addition, the half-maximal effective concentration (EC50) in data set [3] (OR7A5, modified C-terminus SEQ ID NO: 221 (SEQ ID NO: 612)) is 5.6 µM; in data set [3] (OR7A10, modified C-terminus SEQ ID NO: 221 (SEQ ID NO: 610)), 0.16 µM.

Regarding `SC1CCCC1` [Cyclopentanethiol, reference compound], on OR2T4 [19], the Comments on efficacy entry is listed as “No induction”. Also, the “ligand identification in sulfur odorant screen” value on OR2T4 [19] (OR2T4 with optimized C-terminus SEQ ID NO: 86) is “good ligands”. At OR2T4 [19] (changed C-term. vs wild-type), the Fold-improvement potency is reported as >>22 and the Fold-improvement threshold is reported as >>100. In addition, on OR2T4 [20], the EC50 was > 316 µM.

As for `CC(C)c1ccc2c(c1)OCC(=O)CO2` [Cascalone], in [21], the “Detection threshold; concentration for 2-fold induction, wild-type” value is recorded as “no”. For the same molecule, the “Detection threshold; concentration for 2-fold induction, changed C-term.” value in data set [2] is 108.6 µM. In data set [3] (OR10H2, modified C-terminus SEQ ID NO: 221 vs wild-type), this molecule yielded a Fold improvement efficacy of 7.0 fold. Moreover, in data set [3] (OR10H2, modified C-terminus SEQ ID NO: 221 (SEQ ID NO: 680)), the EC50 is 226 µM.
